From the supplement of paper PMC10307832

Legend:
Assay in all cases: relative viability (nuclei count vs DMSO), 5 days (fraction); higher = more cells survive
[1] = test system: LOU-NH91
How it was run: (§1)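 Each reported value is a median over duplicate plates. It expresses relative viability: treated-well nuclei count divided by vehicle-well nuclei count. Lung cancer cell lines in 1536-well plates were dosed by pin tool a day after seeding, alone with one drug or with a fixed anchor-drug dose plus five library-drug doses (not always all listed) in √10 steps, and nuclei were counted after 5 days.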

[2] = test system: NCI-H23
How it was run: as §1

[3] = test system: SK-LU-1
How it was run: as §1

[4] = test system: NCI-H2023
How it was run: as §1

[5] = test system: PC-3 [JPC-3]
How it was run: as §1

[6] = test system: NCI-H460
How it was run: as §1

[7] = test system: LCLC-97TM1
How it was run: as §1

[8] = test system: NCI-H1915
How it was run: as §1

[9] = test system: NCI-H2342
How it was run: as §1

[10] = test system: NCI-H2170
How it was run: as §1

[11] = test system: NCI-H2126
How it was run: as §1

[12] = test system: NCI-H1793
How it was run: as §1

[13] = test system: LXF-289
How it was run: as §1

[14] = test system: NCI-H441
How it was run: as §1

[15] = test system: BEN
How it was run: as §1

[16] = test system: LU99A
How it was run: as §1

[17] = test system: NCI-H1666
How it was run: as §1

[18] = test system: A-427
How it was run: as §1

[19] = test system: HARA
How it was run: as §1

[20] = test system: NCI-H1395
How it was run: as §1

[21] = test system: NCI-H322M
How it was run: as §1

COCC1(CO)C(=O)C2CCN1CC2 (stereo not given) [PRIMA-1MET] + Cc1cc(Nc2cc(N3CCN(C)CC3)nc(Sc3ccc(NC(=O)C4CC4)cc3)n2)n[nH]1 [Tozasertib] (partner 0.1 µM)
relative viability ([1]; first compound 0.2 µM): 0.618 | relative viability ([1]; first compound 0.6325 µM): 0.673 | relative viability ([1]; first compound 2 µM): 0.625 | relative viability ([1]; first compound 6.325 µM): 0.715 | relative viability ([1]; first compound 20 µM): 0.427 | relative viability ([2]; first compound 0.2 µM): 0.507 | relative viability ([2]; first compound 0.6325 µM): 0.312 | relative viability ([2]; first compound 2 µM): 0.371 | relative viability ([2]; first compound 6.325 µM): 0.292 | relative viability ([2]; first compound 20 µM): 0.097 | relative viability ([3]; first compound 0.2 µM): 0.4 | relative viability ([3]; first compound 0.6325 µM): 0.371 | relative viability ([3]; first compound 2 µM): 0.319 | relative viability ([3]; first compound 6.325 µM): 0.344 | relative viability ([3]; first compound 20 µM): 0.24 | relative viability ([4]; first compound 0.2 µM): 0.461 | relative viability ([4]; first compound 0.6325 µM): 0.327 | relative viability ([4]; first compound 2 µM): 0.389 | relative viability ([4]; first compound 6.325 µM): 0.359 | relative viability ([4]; first compound 20 µM): 0.35 | relative viability ([5]; first compound 0.2 µM): 0.996 | relative viability ([5]; first compound 0.6325 µM): 0.856 | relative viability ([5]; first compound 2 µM): 0.857 | relative viability ([5]; first compound 6.325 µM): 0.89 | relative viability ([5]; first compound 20 µM): 0.873 | relative viability ([6]; first compound 0.2 µM): 0.443 | relative viability ([6]; first compound 0.6325 µM): 0.312 | relative viability ([6]; first compound 2 µM): 0.311 | relative viability ([6]; first compound 6.325 µM): 0.5 | relative viability ([6]; first compound 20 µM): 0.0183 | relative viability ([7]; first compound 0.2 µM): 0.237 | relative viability ([7]; first compound 0.6325 µM): 0.239 | relative viability ([7]; first compound 2 µM): 0.325 | relative viability ([7]; first compound 6.325 µM): 0.204 | relative viability ([7]; first compound 20 µM): 0.123 | relative viability ([8]; first compound 0.2 µM): 0.444 | relative viability ([8]; first compound 0.6325 µM): 0.368 | relative viability ([8]; first compound 6.325 µM): 0.389 | relative viability ([8]; first compound 20 µM): 0.364 | relative viability ([9]; first compound 0.2 µM): 0.58 | relative viability ([9]; first compound 0.6325 µM): 0.684 | relative viability ([9]; first compound 2 µM): 0.408 | relative viability ([9]; first compound 6.325 µM): 0.405 | relative viability ([9]; first compound 20 µM): 0.349 | relative viability ([10]; first compound 0.2 µM): 0.9 | relative viability ([10]; first compound 0.6325 µM): 0.671 | relative viability ([10]; first compound 2 µM): 0.677 | relative viability ([10]; first compound 6.325 µM): 0.722 | relative viability ([10]; first compound 20 µM): 0.678 | relative viability ([11]; first compound 0.2 µM): 1.07 | relative viability ([11]; first compound 0.6325 µM): 0.868 | relative viability ([11]; first compound 2 µM): 0.854 | relative viability ([11]; first compound 6.325 µM): 0.898 | relative viability ([11]; first compound 20 µM): 0.807 | relative viability ([12]; first compound 0.2 µM): 0.44 | relative viability ([12]; first compound 0.6325 µM): 0.316 | relative viability ([12]; first compound 6.325 µM): 0.414 | relative viability ([12]; first compound 20 µM): 0.237 | relative viability ([13]; first compound 0.2 µM): 0.217 | relative viability ([13]; first compound 0.6325 µM): 0.173 | relative viability ([13]; first compound 2 µM): 0.16 | relative viability ([13]; first compound 6.325 µM): 0.175 | relative viability ([13]; first compound 20 µM): 0.192 | relative viability ([14]; first compound 0.2 µM): 0.629 | relative viability ([14]; first compound 0.6325 µM): 0.667 | relative viability ([14]; first compound 2 µM): 0.77 | relative viability ([14]; first compound 6.325 µM): 0.743 | relative viability ([14]; first compound 20 µM): 0.309 | relative viability ([15]; first compound 0.2 µM): 0.504 | relative viability ([15]; first compound 0.6325 µM): 0.473 | relative viability ([15]; first compound 6.325 µM): 0.501 | relative viability ([15]; first compound 20 µM): 0.538 | relative viability ([16]; first compound 0.2 µM): 0.282 | relative viability ([16]; first compound 0.6325 µM): 0.268 | relative viability ([16]; first compound 2 µM): 0.277 | relative viability ([16]; first compound 6.325 µM): 0.284 | relative viability ([16]; first compound 20 µM): 0.0311 | relative viability ([17]; first compound 0.2 µM): 0.592 | relative viability ([17]; first compound 0.6325 µM): 0.601 | relative viability ([17]; first compound 2 µM): 0.66 | relative viability ([17]; first compound 6.325 µM): 0.554 | relative viability ([17]; first compound 20 µM): 0.388 | relative viability ([18]; first compound 0.2 µM): 0.163 | relative viability ([18]; first compound 0.6325 µM): 0.201 | relative viability ([18]; first compound 2 µM): 0.203 | relative viability ([18]; first compound 6.325 µM): 0.186 | relative viability ([18]; first compound 20 µM): 0.175 | relative viability ([19]; first compound 0.2 µM): 0.119 | relative viability ([19]; first compound 0.6325 µM): 0.0972 | relative viability ([19]; first compound 6.325 µM): 0.112 | relative viability ([19]; first compound 20 µM): 0.118 | relative viability ([20]; first compound 0.2 µM): 0.823 | relative viability ([20]; first compound 0.6325 µM): 0.556 | relative viability ([20]; first compound 2 µM): 0.768 | relative viability ([20]; first compound 6.325 µM): 0.885 | relative viability ([20]; first compound 20 µM): 0.518 | relative viability ([21]; first compound 0.2 µM): 0.515 | relative viability ([21]; first compound 0.6325 µM): 0.523 | relative viability ([21]; first compound 6.325 µM): 0.504 | relative viability ([21]; first compound 20 µM): 0.286
